These results are taken from US20060041123A1, “Antibacterial agents” (priority 2002, published 2006).

The structures appear in SMILES notation. Counter-ions that a name gives are not always drawn.

One assay in a line: Antimicrobial activity assay: whole-cell MIC by broth microdilution (NCCLS M7-A6). In kind it is cell-based.
Settings: not given
The procedure: Whole-cell antimicrobial activity was determined by broth microdilution using the National Committee for Clinical Laboratory Standards (NCCLS) recommended procedure, Document M7-A6, “Methods for Dilution Susceptibility Tests for Bacteria that Grow Aerobically”. The compounds were tested in serial two-fold dilutions ranging from 0.016 to 16 mcg/mL. Compounds were evaluated against a panel of Gram-positive organisms, including Staphylococcus aureus WCUH29, Streptococcus pneumoniae 1629, Streptococcus pyogenes CN 10, and Enterococcus faecalis 2. In addition, compounds were evaluated against a panel of Gram-negative strains including Haemophilus influenzae NEMC1, E. coli 7623, and Moraxella catarrhalis Ravasio. The minimum inhibitory concentration (MIC) was determined as the lowest concentration of compound that inhibited visible growth. A mirror reader was used to assist in determining the MIC endpoint.
Compounds of the present invention have MIC's ≦20 μg/ml versus all the organisms named above.
In the case of `COc1ccc2ncc(F)c(CCN3CC[C@H](NCc4ccc5c(n4)NC(=O)CO5)[C@H](O)C3)c2n1.Cl.Cl` [Example 68, 6-{[((3R,4S)-1-{2-[3-fluoro-6-(methoxy)-1,5-naphthyridin-4-yl]ethyl}-3-hydroxy-4-piperidinyl)amino]methyl}-2H-pyrido[3,2-b][1,4]oxazin-3(4H)-one dihydrochloride], the MIC was at most 2 µg/mL.
The same measure, in the same setting: for `COc1ccc2ncc(F)c(CCN3CC[C@@H](NCc4ccc5c(n4)NC(=O)CS5)[C@@H](O)C3)c2n1.Cl.Cl` (single isomer, unassigned; enantiomer 2) [Example 70] the value was at most 2 µg/mL.

The same assay, now with this note: versus all the organisms named above (S. aureus WCUH29, S. pneumoniae 1629, S. pyogenes CN 10, E. faecalis 2, H. influenzae NEMC1, E. coli 7623, M. catarrhalis Ravasio); read-out: MIC.
Consider `COc1ccc2ncc(Cl)c(CCN3CC[C@@H](NCc4ccc5c(n4)NC(=O)CO5)[C@H](O)C3)c2c1.Cl.Cl.Cl` (single isomer, unassigned; enantiomer 2) [Example 18, 6-({(trans)-1-[2-(3-Chloro-6-methoxyquinolin-4-yl)ethyl]3-hydroxypiperidin-4-ylamino}methyl)-4H-pyrido[3,2-b][1,4]oxazin-3-one Trihydrochloride enantiomer 2], for which the MIC is at most 2 µg/mL.
Same read-out and setting: for `COc1ccc2ncc(Cl)c(CCN3CC[C@@H](NCc4ccc5c(n4)NC(=O)CO5)[C@H](O)C3)c2n1.Cl.Cl.Cl` (single isomer, unassigned; enantiomer 1) [Example 153, trans-6-({1-[2-(3-Chloro-6-methoxy-[1,5]naphthyridin-4-yl)-ethyl]-3-hydroxy-piperidin-4-ylamino}-methyl)-4H-pyrido[3,2-b][1,4] oxazin-3-one trihydrochloride Enantiomer 1] the value was at most 2 µg/mL.
Regarding `COc1ccc2ncc(Cl)c(C(CO)CN3CCC(NCc4ccc5c(n4)NC(=O)CS5)CC3)c2n1.Cl.Cl` (stereo not drawn) [Example 105, 6-{[(1-{2-[3-chloro-6-(methoxy)-1,5-naphthyridin-4-yl]-3-hydroxypropyl}-4-piperidinyl)amino]methyl}-2H-pyrido[3,2-b][1,4]thiazin-3(4H)-one dihydrochloride], the MIC is at most 2 µg/mL.
Still for that read-out and setting: for `COc1cc(F)c2ncc(Cl)c(CCN3CC[C@H](NCc4cc5c(cn4)OCCO5)[C@H](O)C3)c2c1.Cl.Cl` [Example 98, (3R,4S)-1-{2-[3-chloro-8-fluoro-6-(methoxy)-4-quinolinyl]ethyl}-4-[(2,3-dihydro[1,4]dioxino[2,3-c]pyridin-7-ylmethyl)amino]-3-piperidinol dihydrochloride] the value was at most 2 µg/mL.
For the molecule `COc1ccc2ncc(F)c(CCN3CCC(CO)(NCc4cc5c(cn4)OCCO5)CC3)c2c1.Cl.Cl` [Example 92, (4[(2,3-dihydro[1,4]dioxino[2,3-c]pyridin-7-ylmethyl)amino]-1-{2-[3-fluoro-6-(methoxy)-4-quinolinyl]ethyl}-4-piperidinyl)methanol dihydrochloride], the MIC was at most 2 µg/mL.
Regarding `COc1c(F)ccc2ncc(Cl)c(CCN3CCC(NCc4ccc5c(n4)NC(=O)CS5)CC3)c12.Cl.Cl` [Example 22, 6-({1-[2-(3-Chloro-6-fluoro-5-methoxy-quinolin-4-yl)-ethyl]-piperidin-4-ylamino}-methyl)-4H-pyrido[3,2-b][1,4]thiazin-3-one Dihydrochloride], the MIC is at most 2 µg/mL.
Same read-out and setting: for `COc1ccc2ncc(Cl)c(CCN3CC[C@H](NCc4cc5c(cn4)OCCO5)[C@H](O)C3)c2n1.Cl.Cl` (single isomer, unassigned; enantiomer 1) [Example 29, (cis)-1-[2-(3-Chloro-6-methoxy-[1,5]naphthyridin-4-yl)-ethyl]-4-[(2,3-dihydro-[1,4]dioxino[2,3-c]pyridin-7-ylmethyl)-amino]-piperidin-3-ol Dihydrochloride Enantiomer 1] the value was at most 2 µg/mL; for `COc1ccc2ncc(Cl)c(CCN3CC[C@H](NCc4ccc5c(n4)NC(=O)CS5)[C@H](O)C3)c2n1.Cl.Cl` (single isomer, unassigned; enantiomer 1) [Example 11, 6-({(cis)-1-[2-(3-Chloro-6-methoxy-[1,5]naphthyridin-4-yl)-ethyl]-3-hydroxy-piperidin-4-ylamino}-methyl)-4H-pyrido[3,2-b][1,4]thiazin-3-one Dihydrochloride Enantiomer 1], at most 2 µg/mL.
The same measure, in the same setting: for `COc1c(F)ccc2ncc(Cl)c(CCN3CCC(NCc4cc5c(cn4)OCCO5)CC3)c12.Cl.Cl` [Example 110, 1-{2-[3-chloro-6-fluoro-5-(methoxy)-4-quinolinyl]ethyl}-N-(2,3-dihydro[1,4]dioxino[2,3-c]pyridin-7-ylmethyl)-4-piperidinamine dihydrochloride] the value was at most 2 µg/mL; for `COc1ccc2ncc(Cl)c(CCN3CCC(CO)(NCc4ccc5c(n4)NC(=O)CS5)CC3)c2c1.Cl.Cl` [Example 21, 6-({1-[2-(3-Chloro-6-methoxyquinolin-4-yl)ethyl]4-hydroxymethylpiperidin-4-ylamino}methyl)-4H-pyrido[3,2-b][1,4]thiazin-3-one Dihydrochloride], at most 2 µg/mL.
For the molecule `Cl.Cl.O=C1CSc2ccc(CNC3CCN(CCc4c(Cl)cnc5ccc(F)cc45)CC3)nc2N1` [Example 25, 6-({1-[2-(3-Chloro-6-fluoro-quinolin-4-yl)-ethyl]-piperidin-4-ylamino}-methyl)-4H-pyrido[3,2-b][1,4]thiazin-3-one Dihydrochloride], the MIC was at most 2 µg/mL.
For `COc1ccc2ncc(Cl)c(CCN3CC[C@H](NCc4ccc5c(n4)NC(=O)CO5)[C@H](O)C3)c2c1` (single isomer, unassigned; enantiomer 2) [Example 6, 6-({(cis)-1-[2-(3-Chloro-6-methoxy-quinolin-4-yl)-ethyl]-3-hydroxy-piperidin-4-ylamino}-methyl)-4H-pyrido[3,2-b][1,4]oxazin-3-one Dihydrochloride Enantiomer 2], the MIC was at most 2 µg/mL.
Same read-out and setting: for `COc1ccc2ncc(F)c(CCN3CCC(NC(=O)c4ccc5c(n4)NC(=O)CS5)CC3)c2c1.Cl` [Example 95, N-(1-{2-[3-fluoro-6-(methoxy)-4-quinolinyl]ethyl}-4-piperidinyl)3-oxo-3,4-dihydro-2H-pyrido[3,2-b][1,4]thiazine-6-carboxamide hydrochloride] the value was at most 2 µg/mL; for `COc1ccc2ncc(F)c(CCN3CCC(NCc4cc5c(cn4)OCCS5)CC3)c2c1.Cl.Cl` [Example 86, N-(2,3-dihydro[1,4]oxathiino[2,3-c]pyridin-7-ylmethyl)-1-{2-[3-fluoro-6-(methoxy)-4-quinolinyl]ethyl}-4-piperidinamine dihydrochloride], at most 2 µg/mL.
Still for that read-out and setting: for `COc1ccc2ncc(F)c(CCN3CCC(NCc4cc5c(cn4)OCS5)CC3)c2n1.Cl.Cl` [Example 61, 1-{2-[3-Fluoro-6-(methoxy)-1,5-naphthyridin-4-yl]ethyl}-N-([1,3]oxathiolo[5,4-c]pyridin-6-ylmethyl)-4-piperidinamine dihydrochloride] the value was at most 2 µg/mL; for `COc1ccc2ncc(Cl)c(CCN3CC[C@H](NCc4cc5c(cn4)OCCO5)[C@H](O)C3)c2c1.Cl.Cl` (single isomer, unassigned; enantiomer 1) [Example 45, cis-1-[2-(3-Chloro-6-methoxy-quinolin-4-yl)-ethyl]-4-[(2,3-dihydro-[1,4]dioxino[2,3-c]pyridin-7-ylmethyl)-amino]-piperidin-3-ol Dihydrochloride Enantiomer 1], at most 2 µg/mL.
On to `COc1ccc2ncc(Cl)c(CCN3CCC(NCc4ccc5c(n4)NC(=O)CS5)CC3)c2c1.Cl.Cl.Cl` [Example 13, 6-({1-[2-(3-Chloro-6-methoxyquinolin-4-yl)ethyl]piperidin-4-ylamino}methyl)-4H-pyrido[3,2-b][1,4]thiazin-3-one Trihydrochloride], for which the MIC is at most 2 µg/mL.
On the same count and under the same terms, for `COc1cc(F)c2ncc(F)c(CCN3CC[C@H](NCc4ccc5c(n4)NC(=O)CO5)[C@H](F)C3)c2c1.Cl.Cl` (single isomer, unassigned; enantiomer 1) [Example 145, cis-6-{[(1-{2-[3,8-difluoro-6-(methoxy)-4-quinolinyl]ethyl}-3-fluoro-4-piperidinyl)amino]methyl}-2H-pyrido[3,2-b][1,4]oxazin-3(4H)-one dihydrochloride, Enantiomer 1] the value was at most 2 µg/mL.
Same read-out and setting: for `COc1ccc2ncc(F)c(CCN3CCC(NCc4cnc5c(c4)NC(=O)CS5)CC3)c2n1.Cl.Cl` [Example 56, 7-{[(1-(2-[3-fluoro-6-(methoxy)-1,5-naphthyridin-4-yl]ethyl}-4-piperidinyl)amino]methyl}-1H-pyrido[2,3-b][1,4]thiazin-2(3H)-one dihydrochloride] the value was at most 2 µg/mL; for `COc1cc(F)c2ncc(F)c(CCN3CC[C@H](NCc4ccc5c(n4)NC(=O)CS5)[C@H](F)C3)c2c1.Cl.Cl` (single isomer, unassigned; enantiomer 1) [Example 149, cis-6-{[(-1-{2-[3,8-difluoro-6-(methoxy)-4-quinolinyl]ethyl}-3-fluoro-4-piperidinyl)amino]methyl}-2H-pyrido[3,2-b][1,4]thiazin-3(4H)-one dihydrochloride, Enantiomer 1], at most 2 µg/mL; for `COc1cc(F)c2ncc(F)c(CCN3CCC(NCc4cnc5c(c4)NC(=O)CS5)CC3)c2c1.Cl.Cl` [Example 48, 7-{[(1-{2-[3,8-Difluoro-6-(methoxy)-4-quinolinyl]ethyl}-4-piperidinyl)amino]methyl}-1H-pyrido[2,3-b][1,4]thiazin-2(3H)-one dihydrochloride], at most 2 µg/mL.
Still for that read-out and setting: for `COc1ccc2ncc(F)c(CCN3CCC(NCc4cc5c(cn4)OCCC5)CC3)c2n1.Cl.Cl` [Example 126, N-(3,4-dihydro-2H-pyrano[2,3-c]pyridin-6-ylmethyl)-1-{2-[3-fluoro-6-(methoxy)-1,5-naphthyridin-4-yl]ethyl}-4-piperidinamine dihydrochloride] the value was at most 2 µg/mL.
